According to PubChem BioAssay (NCI):
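Where inhibition never reached the appropriate level, the endpoint shown equals the highest concentration tested. Otherwise, values were interpolated linearly from a five-concentration, 48-hour dose response in 96-well plates. TGI marks complete inhibition of growth.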

tested on: IGROV1 ovarian; experiment: NCI tumour cell line growth inhibition, 48 h

SMILES	TGI [µM]
CNCCCn1c2ccccc2c2c3c(c(-c4ccsc4)cc21)C(=O)NC3=O	2.4
C=C(C)C1CCC2(C)CC1c1c(c(C)cc3c1[nH]c1ccccc13)O2 (configuration not stated)	> 25
CN(CCN(C)C(=O)CCn1cc(F)c(=O)[nH]c1=O)C(=O)CCn1cc(F)c(=O)[nH]c1=O	> 100
CCOC1c2cc(C(C)C)c(O)c(O)c2[C@@]23CCCC(C)(C)C2C1OC3=O (some centres not stated)	> 100
C=CN1C(=O)[C@H](Oc2ccccc2)[C@@H]1c1ccccc1	> 100
C=CCN(C(=O)CNC(=O)C(F)(F)F)c1cc(OCc2ccccc2)c2c(c1)c(C)cn2S(=O)(=O)c1ccccc1	> 100
CSc1ccsc1-c1sc(-c2cc(SC)c(-c3sc(-c4cc(SC)c(-c5sccc5SC)s4)cc3SC)s2)cc1SC	> 100
CS(=O)(=O)c1ccc(-c2cc(-c3ccc(S(C)(=O)=O)cc3)[n+](-c3cc(-c4ccccc4)c([O-])c(-c4ccccc4)c3)c(-c3ccc(S(C)(=O)=O)cc3)c2)cc1	> 100
COC1(OC)CCCc2c1no[n+]2[O-]	> 100
COc1ccc(C(C#N)NNC(=O)Cc2ccccc2)cc1OC (configuration not stated)	> 100
CC(C)=CC1CC(=[N+]=[N-])C(=O)C1(C)C (configuration not stated)	> 100
COc1cccc(C2CC23C(=O)NC(=O)NC3=O)c1 (configuration not stated)	> 100
O=C(CSc1c2ccccc2nc2ccccc12)Nc1ccccc1-c1ccccc1NC(=O)CSc1c2ccccc2nc2ccccc12	42.8
O=C1c2ccccc2C(=O)c2c1nc1ccccc1c2-c1cncc(-c2c3c(nc4ccccc24)C(=O)c2ccccc2C3=O)c1	19.7
O=S(=O)(c1ccccc1)N1N=C2c3ccccc3CCC[C@H]2C1c1ccccc1 (some centres not stated)	> 100
CCOC(=O)/C(=C/c1ccc(N(C)C)cc1)N(CC)CC	> 100
CC(C)[Si]1(C(C)C)OCC2OC3(CO)C(Oc4nc(=O)ccn43)C2O[Si](C(C)C)(C(C)C)O1 (configuration not stated)	33

tested on: K-562 leukemia; experiment: NCI tumour cell line growth inhibition, 48 h

SMILES	TGI [µM]
COC(=O)[C@@]1(C)/C(=N/NS(=O)(=O)c2ccc(C)cc2)CCC[C@@H]1C	> 100
COc1ccc(OC)c(/C=C(/C#N)c2ccccc2)c1	13.8
COCOC1C=CCCCC2=CC(C)=C(CC1)O2 (configuration not stated)	> 100
CCCCC/C=C1\CCC(CN(C)C)C1=O (configuration not stated)	28.2
C=CCN1CCC(O)(c2cc(C(=O)OCC)[nH]c2-c2cc(C)no2)C1 (configuration not stated)	> 100
CN(C)/N=C1/CCC(C(F)(F)F)(C(F)(F)F)O1	> 100
N#Cc1c(-c2ccc(Cl)cc2)c(C#N)c(=O)n(NS(=O)(=O)c2ccccc2)c1O	> 100
COC(=O)c1nsc(OC)c1Cl	> 100
C=C(C)C1CCC2(C)CC1c1c(c(C)cc3c1[nH]c1ccccc13)O2 (configuration not stated)	> 25
CN(CCN(C)C(=O)CCn1cc(F)c(=O)[nH]c1=O)C(=O)CCn1cc(F)c(=O)[nH]c1=O	> 100
CCOC1c2cc(C(C)C)c(O)c(O)c2[C@@]23CCCC(C)(C)C2C1OC3=O (some centres not stated)	> 100
C=CN1C(=O)[C@H](Oc2ccccc2)[C@@H]1c1ccccc1	> 100
C=CCN(C(=O)CNC(=O)C(F)(F)F)c1cc(OCc2ccccc2)c2c(c1)c(C)cn2S(=O)(=O)c1ccccc1	> 100
CSc1ccsc1-c1sc(-c2cc(SC)c(-c3sc(-c4cc(SC)c(-c5sccc5SC)s4)cc3SC)s2)cc1SC	> 100
CS(=O)(=O)c1ccc(-c2cc(-c3ccc(S(C)(=O)=O)cc3)[n+](-c3cc(-c4ccccc4)c([O-])c(-c4ccccc4)c3)c(-c3ccc(S(C)(=O)=O)cc3)c2)cc1	> 100
COC1(OC)CCCc2c1no[n+]2[O-]	> 100
COc1ccc(C(C#N)NNC(=O)Cc2ccccc2)cc1OC (configuration not stated)	> 100
CC(C)=CC1CC(=[N+]=[N-])C(=O)C1(C)C (configuration not stated)	> 100
COc1cccc(C2CC23C(=O)NC(=O)NC3=O)c1 (configuration not stated)	> 100
O=C(CSc1c2ccccc2nc2ccccc12)Nc1ccccc1-c1ccccc1NC(=O)CSc1c2ccccc2nc2ccccc12	> 30.1
CC1(C)OC[C@@H]([C@H](O)C2C=CC(=O)S2)O1 (some centres not stated)	> 100
O=C1c2ccccc2C(=O)c2c1nc1ccccc1c2-c1cncc(-c2c3c(nc4ccccc24)C(=O)c2ccccc2C3=O)c1	> 100
O=S(=O)(c1ccccc1)N1N=C2c3ccccc3CCC[C@H]2C1c1ccccc1 (some centres not stated)	> 100
CCOC(=O)/C(=C/c1ccc(N(C)C)cc1)N(CC)CC	65.8
CC(C)[Si]1(C(C)C)OCC2OC3(CO)C(Oc4nc(=O)ccn43)C2O[Si](C(C)C)(C(C)C)O1 (configuration not stated)	45.5

tested on: MCF7 breast; experiment: NCI tumour cell line growth inhibition, 48 h

SMILES	TGI [µM]
C=C(Nc1nc2ccc(C)cc2s1)C(=O)C(CC)C(=O)C(CC)CC1C(=O)NC(=O)NC1=O (configuration not stated)	> 100
COCOC1C=CCCCC2=CC(C)=C(CC1)O2 (configuration not stated)	> 100
N#Cc1c(-c2ccc(Cl)cc2)c(C#N)c(=O)n(NS(=O)(=O)c2ccccc2)c1O	42.9
COC(=O)c1nsc(OC)c1Cl	> 100
C=CCN(C(=O)CNC(=O)C(F)(F)F)c1cc(OCc2ccccc2)c2c(c1)c(C)cn2S(=O)(=O)c1ccccc1	> 100
CSc1ccsc1-c1sc(-c2cc(SC)c(-c3sc(-c4cc(SC)c(-c5sccc5SC)s4)cc3SC)s2)cc1SC	> 100
COC1(OC)CCCc2c1no[n+]2[O-]	> 100
CC1(C)OC[C@@H]([C@H](O)C2C=CC(=O)S2)O1 (some centres not stated)	> 100
O=C1c2ccccc2C(=O)c2c1nc1ccccc1c2-c1cncc(-c2c3c(nc4ccccc24)C(=O)c2ccccc2C3=O)c1	32.8
CC(C)[Si]1(C(C)C)OCC2OC3(CO)C(Oc4nc(=O)ccn43)C2O[Si](C(C)C)(C(C)C)O1 (configuration not stated)	18.6

tested on: MDA-N; experiment: NCI tumour cell line growth inhibition, 48 h

SMILES	TGI [µM]
C=C(Nc1nc2ccc(C)cc2s1)C(=O)C(CC)C(=O)C(CC)CC1C(=O)NC(=O)NC1=O (configuration not stated)	> 100
COCOC1C=CCCCC2=CC(C)=C(CC1)O2 (configuration not stated)	> 100
C=CCN1CCC(O)(c2cc(C(=O)OCC)[nH]c2-c2cc(C)no2)C1 (configuration not stated)	> 100
CN(C)/N=C1/CCC(C(F)(F)F)(C(F)(F)F)O1	> 100
N#Cc1c(-c2ccc(Cl)cc2)c(C#N)c(=O)n(NS(=O)(=O)c2ccccc2)c1O	> 100
COC(=O)c1nsc(OC)c1Cl	> 100
COC1(OC)CCCc2c1no[n+]2[O-]	> 100
CC1(C)OC[C@@H]([C@H](O)C2C=CC(=O)S2)O1 (some centres not stated)	> 100

tested on: MOLT-4 leukemia; experiment: NCI tumour cell line growth inhibition, 48 h

SMILES	TGI [µM]
COC(=O)[C@@]1(C)/C(=N/NS(=O)(=O)c2ccc(C)cc2)CCC[C@@H]1C	> 100
C=C(Nc1nc2ccc(C)cc2s1)C(=O)C(CC)C(=O)C(CC)CC1C(=O)NC(=O)NC1=O (configuration not stated)	> 100
COc1ccc(OC)c(/C=C(/C#N)c2ccccc2)c1	57.7
COC(=O)C(C(=O)Cc1ccccc1[N+](=O)[O-])C(=O)OC	> 100
COCOC1C=CCCCC2=CC(C)=C(CC1)O2 (configuration not stated)	> 100
CCCCC/C=C1\CCC(CN(C)C)C1=O (configuration not stated)	30.8
C=CCN1CCC(O)(c2cc(C(=O)OCC)[nH]c2-c2cc(C)no2)C1 (configuration not stated)	> 100
CN(C)/N=C1/CCC(C(F)(F)F)(C(F)(F)F)O1	> 100
N#Cc1c(-c2ccc(Cl)cc2)c(C#N)c(=O)n(NS(=O)(=O)c2ccccc2)c1O	71.2
COC(=O)c1nsc(OC)c1Cl	> 100
CNCCCn1c2ccccc2c2c3c(c(-c4ccsc4)cc21)C(=O)NC3=O	> 100
C=C(C)C1CCC2(C)CC1c1c(c(C)cc3c1[nH]c1ccccc13)O2 (configuration not stated)	> 25
CN(CCN(C)C(=O)CCn1cc(F)c(=O)[nH]c1=O)C(=O)CCn1cc(F)c(=O)[nH]c1=O	> 100
CCOC1c2cc(C(C)C)c(O)c(O)c2[C@@]23CCCC(C)(C)C2C1OC3=O (some centres not stated)	> 100
C=CN1C(=O)[C@H](Oc2ccccc2)[C@@H]1c1ccccc1	91.3
C=CCN(C(=O)CNC(=O)C(F)(F)F)c1cc(OCc2ccccc2)c2c(c1)c(C)cn2S(=O)(=O)c1ccccc1	> 100
CSc1ccsc1-c1sc(-c2cc(SC)c(-c3sc(-c4cc(SC)c(-c5sccc5SC)s4)cc3SC)s2)cc1SC	> 100
CS(=O)(=O)c1ccc(-c2cc(-c3ccc(S(C)(=O)=O)cc3)[n+](-c3cc(-c4ccccc4)c([O-])c(-c4ccccc4)c3)c(-c3ccc(S(C)(=O)=O)cc3)c2)cc1	> 100
COC1(OC)CCCc2c1no[n+]2[O-]	> 100
COc1ccc(C(C#N)NNC(=O)Cc2ccccc2)cc1OC (configuration not stated)	> 100
CC(C)=CC1CC(=[N+]=[N-])C(=O)C1(C)C (configuration not stated)	> 100
COc1cccc(C2CC23C(=O)NC(=O)NC3=O)c1 (configuration not stated)	> 100
O=C(CSc1c2ccccc2nc2ccccc12)Nc1ccccc1-c1ccccc1NC(=O)CSc1c2ccccc2nc2ccccc12	> 54.4
CC1(C)OC[C@@H]([C@H](O)C2C=CC(=O)S2)O1 (some centres not stated)	75.2
O=C1c2ccccc2C(=O)c2c1nc1ccccc1c2-c1cncc(-c2c3c(nc4ccccc24)C(=O)c2ccccc2C3=O)c1	12.2
O=S(=O)(c1ccccc1)N1N=C2c3ccccc3CCC[C@H]2C1c1ccccc1 (some centres not stated)	> 100
CCOC(=O)/C(=C/c1ccc(N(C)C)cc1)N(CC)CC	> 100
CC(C)[Si]1(C(C)C)OCC2OC3(CO)C(Oc4nc(=O)ccn43)C2O[Si](C(C)C)(C(C)C)O1 (configuration not stated)	24.8

tested on: OVCAR-3 ovarian; experiment: NCI tumour cell line growth inhibition, 48 h

SMILES	TGI [µM]
COC(=O)[C@@]1(C)/C(=N/NS(=O)(=O)c2ccc(C)cc2)CCC[C@@H]1C	> 100
C=C(Nc1nc2ccc(C)cc2s1)C(=O)C(CC)C(=O)C(CC)CC1C(=O)NC(=O)NC1=O (configuration not stated)	> 100
COc1ccc(OC)c(/C=C(/C#N)c2ccccc2)c1	88.2
COC(=O)C(C(=O)Cc1ccccc1[N+](=O)[O-])C(=O)OC	> 100
COCOC1C=CCCCC2=CC(C)=C(CC1)O2 (configuration not stated)	> 100
CCCCC/C=C1\CCC(CN(C)C)C1=O (configuration not stated)	30.7
C=CCN1CCC(O)(c2cc(C(=O)OCC)[nH]c2-c2cc(C)no2)C1 (configuration not stated)	> 100
CN(C)/N=C1/CCC(C(F)(F)F)(C(F)(F)F)O1	50.7
COC(=O)c1nsc(OC)c1Cl	> 100
CNCCCn1c2ccccc2c2c3c(c(-c4ccsc4)cc21)C(=O)NC3=O	2.6
C=C(C)C1CCC2(C)CC1c1c(c(C)cc3c1[nH]c1ccccc13)O2 (configuration not stated)	> 25
CN(CCN(C)C(=O)CCn1cc(F)c(=O)[nH]c1=O)C(=O)CCn1cc(F)c(=O)[nH]c1=O	> 100
CCOC1c2cc(C(C)C)c(O)c(O)c2[C@@]23CCCC(C)(C)C2C1OC3=O (some centres not stated)	> 100
C=CCN(C(=O)CNC(=O)C(F)(F)F)c1cc(OCc2ccccc2)c2c(c1)c(C)cn2S(=O)(=O)c1ccccc1	> 100
CSc1ccsc1-c1sc(-c2cc(SC)c(-c3sc(-c4cc(SC)c(-c5sccc5SC)s4)cc3SC)s2)cc1SC	> 100
CS(=O)(=O)c1ccc(-c2cc(-c3ccc(S(C)(=O)=O)cc3)[n+](-c3cc(-c4ccccc4)c([O-])c(-c4ccccc4)c3)c(-c3ccc(S(C)(=O)=O)cc3)c2)cc1	> 100
COC1(OC)CCCc2c1no[n+]2[O-]	> 100
CC(C)=CC1CC(=[N+]=[N-])C(=O)C1(C)C (configuration not stated)	> 100
COc1cccc(C2CC23C(=O)NC(=O)NC3=O)c1 (configuration not stated)	> 100
O=C(CSc1c2ccccc2nc2ccccc12)Nc1ccccc1-c1ccccc1NC(=O)CSc1c2ccccc2nc2ccccc12	31
CC1(C)OC[C@@H]([C@H](O)C2C=CC(=O)S2)O1 (some centres not stated)	> 100
O=C1c2ccccc2C(=O)c2c1nc1ccccc1c2-c1cncc(-c2c3c(nc4ccccc24)C(=O)c2ccccc2C3=O)c1	> 75.6
O=S(=O)(c1ccccc1)N1N=C2c3ccccc3CCC[C@H]2C1c1ccccc1 (some centres not stated)	> 100
CCOC(=O)/C(=C/c1ccc(N(C)C)cc1)N(CC)CC	> 100
